Test: Inhibition of PAF-induced platelet aggregation

IC50 [nM]	Compound
18	C=CCNC(CC(=O)N1CCN(C(C#N)c2cccnc2C)CC1)c1ccccc1 (stereo not given) [[4-(3-Allylamino-3-phenyl-propionyl)-piperazin-1-yl]-(2-methyl-pyridin-3-yl)-acetonitrile]
740	Cc1ncccc1C(C#N)N1CCN(C(=O)CC(N)c2ccccc2)CC1 (stereo not given) [[4-(3-Amino-3-phenyl-propionyl)-piperazin-1-yl]-(2-methyl-pyridin-3-yl)-acetonitrile]
9.1	Cc1ncccc1C(C#N)N1CCN(C(=O)CC(NCc2ccccc2)c2ccccc2)CC1 (stereo not given) [[4-(3-Benzylamino-3-phenyl-propionyl)-piperazin-1-yl]-(2-methyl-pyridin-3-yl)-acetonitrile]
41	Cc1ncccc1C(C#N)N1CCN(C(=O)CC(c2ccccc2)N(Cc2ccccc2)Cc2ccccc2)CC1 (stereo not given) [[4-(3-Dibenzylamino-3-phenyl-propionyl)-piperazin-1-yl]-(2-methyl-pyridin-3-yl)-acetonitrile]
26	Cc1ncccc1C(C#N)N1CCN(C(=O)C(C)(C)C(F)(c2ccccc2)c2ccccc2)CC1 (stereo not given) [[4-(3-Fluoro-2,2-dimethyl-3,3-diphenyl-propionyl)-piperazin-1-yl]-(2-methyl-pyridin-3-yl)-acetonitrile]
17	Cc1ncccc1C(C#N)N1CCN(C(=O)CC(O)(c2ccccc2)c2ccccc2)CC1 (stereo not given) [[4-(3-Hydroxy-3,3-diphenyl-propionyl)-piperazin-1-yl]-(2-methyl-pyridin-3-yl)-acetonitrile]
11	CNC(CC(=O)N1CCN(C(C#N)c2cccnc2C)CC1)c1ccccc1 (stereo not given) [[4-(3-Methylamino-3-phenyl-propionyl)-piperazin-1-yl]-(2-methyl-pyridin-3-yl)-acetonitrile]
80	Cc1ncccc1C(C#N)N1CCN(C(=O)CCC(c2ccccc2)c2ccccc2)CC1 (stereo not given) [[4-(4,4-Diphenyl-butyryl)-piperazin-1-yl]-(2-methyl-pyridin-3-yl)-acetonitrile]
86	Cc1ncccc1C(C#N)N1CCN(C(=O)CNC(C)(c2ccccc2)c2ccccc2)CC1 (stereo not given) [{4-[2-(1,1-Diphenyl-ethylamino)-acetyl]-piperazin-1-yl}-(2-methyl-pyridin-3-yl)-acetonitrile]
50	Cc1ncccc1C(C#N)N1CCN(C(=O)CNC2c3ccccc3-c3ccccc32)CC1 (stereo not given) [{4-[2-(9H-Fluoren-9-ylamino)-acetyl]-piperazin-1-yl}-(2-methyl-pyridin-3-yl)-acetonitrile]
34	Cc1ncccc1C(C#N)N1CCN(C(=O)[C@H](CO)NC(c2ccccc2)c2ccccc2)CC1 (stereo not given in full) [{4-[2-(Benzhydryl-amino)-3-hydroxy-propionyl]-piperazin-1-yl}-(2-methyl-pyridin-3-yl)-acetonitrile]
38	CCc1ncccc1C(C#N)N1CCN(C(=O)CNC(c2ccccc2)c2ccccc2)CC1 (stereo not given) [{4-[2-(Benzhydryl-amino)-acetyl]-piperazin-1-yl}-(2-ethyl-pyridin-3-yl)-acetonitrile]
40	Cc1ncccc1C(C#N)N1CCN(C(=O)CNC(c2ccccc2)c2ccccc2)CC1 (stereo not given) [{4-[2-(Benzhydryl-amino)-acetyl]-piperazin-1-yl}-(2-methyl-pyridin-3-yl)-acetonitrile]
30	Cc1ncccc1C(C#N)N1CCN(C(=O)[C@@H](C)NC(c2ccccc2)c2ccccc2)CC1 (stereo not given in full) [{4-[2-(Benzhydryl-amino)-propionyl]-piperazin-1-yl}-(2-methyl-pyridin-3-yl)-acetonitrile]
13	Cc1ncccc1C(C#N)N1CCN(C(=O)[C@H](C)NC(c2ccccc2)c2ccccc2)CC1 (stereo not given in full) [{4-[2-(Benzhydryl-amino)-propionyl]-piperazin-1-yl}-(2-methyl-pyridin-3-yl)-acetonitrile]
120	Cc1ncccc1C(C#N)N1CCN(C(=O)CCNC(c2ccccc2)c2ccccc2)CC1 (stereo not given) [{4-[3-(Benzhydryl-amino)-propionyl]-piperazin-1-yl}-(2-methyl-pyridin-3-yl)-acetonitrile]
20	Cc1ncccc1C(C#N)N1CCN(C(=O)CC(c2ccccc2)N(C)Cc2ccccc2)CC1 (stereo not given) [{4-[3-(Benzyl-methyl-amino)-3-phenyl-propionyl]-piperazin-1-yl}-(2-methyl-pyridin-3-yl)-acetonitrile]

Test: In vitro inhibition of PAF-induced platelet aggregation in male rabbits

IC50 [nM]	Compound
4000	Cc1ncccc1C(CO)N1CCN(C(=O)CC(c2ccccc2)c2ccccc2)CC1 (stereo not given) [1-{4-[2-Hydroxy-1-(2-methyl-pyridin-3-yl)-ethyl]-piperazin-1-yl}-3,3-diphenyl-propan-1-one]
7800	CO/N=C(/C)C(c1cccnc1C)N1CCN(C(=O)CC(c2ccccc2)c2ccccc2)CC1 (stereo not given) [1-{4-[2-Methoxyimino-1-(2-methyl-pyridin-3-yl)-propyl]-piperazin-1-yl}-3,3-diphenyl-propan-1-one]
130	Cc1ncccc1C(C#N)N1CCN(C(=O)CC(NC(=O)c2ncccc2O)c2ccccc2)CC1 (stereo not given) [3-Hydroxy-pyridine-2-carboxylic acid (3-{4-[cyano-(2-methyl-pyridin-3-yl)-methyl]-piperazin-1-yl}-3-oxo-1-phenyl-propyl)-amide]
46	CCOC(=O)C(CC(=O)N1CCN(C(C#N)c2cccnc2C)CC1)(c1ccccc1)c1ccccc1 (stereo not given) [4-{4-[Cyano-(2-methyl-pyridin-3-yl)-methyl]-piperazin-1-yl}-4-oxo-2,2-diphenyl-butyric acid ethyl ester]
350	Cc1ncccc1C(C#N)N1CCN(C(=O)CC(c2ccccc2)n2cccc2)CC1 (stereo not given) [(2-Methyl-pyridin-3-yl)-[4-(3-phenyl-3-pyrrol-1-yl-propionyl)-piperazin-1-yl]-acetonitrile]
18	Cc1ncccc1C(C#N)N1CCN(C(=O)CC(c2ccccc2)N2CCCC2)CC1 (stereo not given) [(2-Methyl-pyridin-3-yl)-[4-(3-phenyl-3-pyrrolidin-1-yl-propionyl)-piperazin-1-yl]-acetonitrile]
32	Cc1ncccc1C(C#N)N1CCN(C(=O)CC(C)c2ccccc2)CC1 (stereo not given) [(2-Methyl-pyridin-3-yl)-[4-(3-phenyl-butyryl)-piperazin-1-yl]-acetonitrile]
14	Cc1ncccc1C(C#N)N1CCN(C(=O)CC(O)(c2ccccc2)C(F)(F)F)CC1 (stereo not given) [(2-Methyl-pyridin-3-yl)-[4-(4,4,4-trifluoro-3-hydroxy-3-phenyl-butyryl)-piperazin-1-yl]-acetonitrile]
120	Cc1ncccc1C(C#N)N1CCN(C(=O)/C=C(/c2ccccc2)C(F)(F)F)CC1 (stereo not given) [(2-Methyl-pyridin-3-yl)-[4-(4,4,4-trifluoro-3-phenyl-but-2-enoyl)-piperazin-1-yl]-acetonitrile]
55	Cc1ncccc1C(C#N)N1CCN(C(=O)/C=C(\c2ccccc2)C(F)(F)F)CC1 (stereo not given) [(2-Methyl-pyridin-3-yl)-[4-(4,4,4-trifluoro-3-phenyl-but-2-enoyl)-piperazin-1-yl]-acetonitrile]
12	Cc1ncccc1C(C#N)N1CCN(C(=O)CC(c2ccccc2)C(F)(F)F)CC1 (stereo not given) [(2-Methyl-pyridin-3-yl)-[4-(4,4,4-trifluoro-3-phenyl-butyryl)-piperazin-1-yl]-acetonitrile]
2600	Cc1ncccc1C(C#N)N1CCN(C(=O)CC(NC(=O)c2ccoc2)c2ccccc2)CC1 (stereo not given) [Furan-3-carboxylic acid (3-{4-[cyano-(2-methyl-pyridin-3-yl)-methyl]-piperazin-1-yl}-3-oxo-1-phenyl-propyl)-amide]
29	Cc1ncccc1C(C#N)N1CCN(C(=O)CC(NC(=O)c2ccc[nH]c2=O)c2ccccc2)CC1 (stereo not given) [N-(3-{4-[Cyano-(2-methyl-pyridin-3-yl)-methyl]-piperazin-1-yl}-3-oxo-1-phenyl-propyl)-2-hydroxy-nicotinamide]
18	Cc1ncccc1C(C#N)N1CCN(C(=O)CC(NS(=O)(=O)c2ccccc2)c2ccccc2)CC1 (stereo not given) [N-(3-{4-[Cyano-(2-methyl-pyridin-3-yl)-methyl]-piperazin-1-yl}-3-oxo-1-phenyl-propyl)-benzenesulfonamide]
21	Cc1ncccc1C(C#N)N1CCN(C(=O)CC(NS(C)(=O)=O)c2ccccc2)CC1 (stereo not given) [N-(3-{4-[Cyano-(2-methyl-pyridin-3-yl)-methyl]-piperazin-1-yl}-3-oxo-1-phenyl-propyl)-methanesulfonamide]
82	Cc1ncccc1C(C#N)N1CCN(C(=O)CN(C(c2ccccc2)c2ccccc2)S(C)(=O)=O)CC1 (stereo not given) [N-Benzhydryl-N-(2-{4-[cyano-(2-methyl-pyridin-3-yl)-methyl]-piperazin-1-yl}-2-oxo-ethyl)-methanesulfonamide]
820	Cc1ncccc1C(C#N)N1CCN(C(=O)CC(NC(=O)c2cnccn2)c2ccccc2)CC1 (stereo not given) [Pyrazine-2-carboxylic acid (3-{4-[cyano-(2-methyl-pyridin-3-yl)-methyl]-piperazin-1-yl}-3-oxo-1-phenyl-propyl)-amide]
87	Cc1ncccc1C(C#N)N1CCN(C(=O)CON=C(c2ccccc2)c2ccccc2)CC1 (stereo not given) [[4-(2-Benzhydrylideneaminooxy-acetyl)-piperazin-1-yl]-(2-methyl-pyridin-3-yl)-acetonitrile]
15500	CCOC(=O)C(c1cccnc1C)N1CCN(C(=O)CC(c2ccccc2)c2ccccc2)CC1 (stereo not given) [[4-(3,3-Diphenyl-propionyl)-piperazin-1-yl]-(2-methyl-pyridin-3-yl)-acetic acid ethyl ester]
32	Cc1ncccc1C(C#N)N1CCN(C(=O)CC(O)(c2ccccc2)c2cccnc2)CC1 (stereo not given) [[4-(3-Hydroxy-3-phenyl-3-pyridin-3-yl-propionyl)-piperazin-1-yl]-(2-methyl-pyridin-3-yl)-acetonitrile]
36	Cc1ncccc1C(C#N)N1CCN(C(=O)CC(C)(O)c2ccccc2)CC1 (stereo not given) [[4-(3-Hydroxy-3-phenyl-butyryl)-piperazin-1-yl]-(2-methyl-pyridin-3-yl)-acetonitrile]

Compound	IC50 [nM]
Cc1ncccc1C(C#N)N1CCN(C(=O)C[S+]([O-])C(c2ccccc2)c2ccccc2)CC1 (stereo not given) [{4-[2-(Diphenyl-methanesulfinyl)-acetyl]-piperazin-1-yl}-(2-methyl-pyridin-3-yl)-acetonitrile]	44
Cc1ncccc1C(C#N)N1CCN(C(=O)CS(=O)(=O)C(c2ccccc2)c2ccccc2)CC1 (stereo not given) [{4-[2-(Diphenyl-methanesulfonyl)-acetyl]-piperazin-1-yl}-(2-methyl-pyridin-3-yl)-acetonitrile]	26

Reference: BindingDB's records for doi:10.1021/jm00072a019 (J. Uriach & Cía., 1993)
